Tests used:
Format in all cases: binding
[1] = test system: tetrahydrocannabinol antibody; experiment: Cross-reactivity of THC sensor (capillary competitive chemiluminescent ELISA); details: target analyte THC; challenging analyte in sweat 1.6-10,000 ng/mL vs THC-HRP 4000x; IC50 ratio Eq. (1)
Description: (§1) In order to develop a sensor array that can quantify the presence of multiple analytes simultaneously, it is important to examine their cross-reactivity. Using the methadone as an example, methadone was the target analyte and channels of the capillary sensor were first coated with methadone antibody. After blocking, serial concentrations of the challenging analytes, METH, amphetamine, or THC, were individually mixed with methadone-HRP and withdrawn into the capillaries. The challenging analyte molecules (e.g., METH) competed with methadone-HRP for the methadone antibody coated on the capillary surface. Cross-reactivity is calculated as follows: […]
(§2) In order to perform multiplexed detection of drugs in sweat, first the cross-reactivity of the capillary-based sensors is examined. The capillary coated with the antibody intended for detecting one particular drug (i.e., target analyte) is challenged with various concentrations of the other three drugs (i.e., challenging analytes). Here, the concentrations of 10,000 ng/mL, 5,000 ng/mL, 400 ng/mL, 80 ng/mL, and 1.6 ng/mL for the challenging analytes in sweat are used. […] One exception is the 3.1% cross-reactivity of METH sensor to amphetamine, which is due to the structural similarities between METH and amphetamine.
(§3) The final concentration of competing drug conjugates was 2000×, 4000×, 15000×, and 4000× for methadone-HRP, METH-HRP, amphetamine-HRP, and THC-HRP, respectively, in corresponding sensors.

methadone antibody = experiment: Cross-reactivity of methadone sensor (capillary competitive chemiluminescent ELISA); details: target analyte methadone; challenging analyte in sweat 1.6-10,000 ng/mL vs methadone-HRP 2000x; IC50 ratio Eq. (1)
Description: as §1, §2, §3

[2] = test system: corresponding antibody coated on capillary inner surface; experiment: Detection of individual drugs in artificial sweat, inhibition curves (capillary competitive chemiluminescent ELISA); details: y = a + b/(1+(x/x0)^p), x in ng/mL; used as calibration curve
methamphetamine antibody = experiment: Cross-reactivity of METH sensor (capillary competitive chemiluminescent ELISA); details: target analyte METH, challenging analyte in sweat 1.6-10,000 ng/mL vs METH-HRP 4000x, IC50 ratio Eq. (1)
Description: as §1, §2, §3

amphetamine antibody = experiment: Cross-reactivity of amphetamine sensor (capillary competitive chemiluminescent ELISA); details: target analyte amphetamine; challenging analyte in sweat 1.6-10,000 ng/mL vs amphetamine-HRP 15000x; IC50 ratio Eq. (1)
Description: as §1, §2, §3

CC(N)Cc1ccccc1 (stereo not shown) [Amphetamine, amphetamine]
Cross-reactivity (100%) [1]: <0.4% | Cross-reactivity (100%) (methadone antibody): <0.001% | midpoint parameter of logistic fit of inhibition curve B/B0 (%) [2]: 1473.04 ng/mL | Cross-reactivity (100%) (methamphetamine antibody): 3.1% | Cross-reactivity (100%) (methamphetamine antibody; listed as amphetamine): 3.1%

CN[C@@H](C)Cc1ccccc1 [METH, methamphetamine]
Cross-reactivity (100%) [1]: <0.4% | Cross-reactivity (100%) (amphetamine antibody): 0.07% | Cross-reactivity (100%) (methadone antibody): <0.001% | midpoint parameter of logistic fit of inhibition curve B/B0 (%) [2]: 7.63 ng/mL

CCC(=O)C(CC(C)N(C)C)(c1ccccc1)c1ccccc1 (stereo not shown) [Methadone, methadone]
Cross-reactivity (100%) [1]: <0.4% | Cross-reactivity (100%) (amphetamine antibody): <0.02% | Cross-reactivity (100%) (methamphetamine antibody): <0.04%

CCCCCc1cc(O)c2c(c1)OC(C)(C)[C@@H]1CCC(C)=C[C@@H]21 [THC, tetrahydrocannabinol]
Cross-reactivity (100%) (amphetamine antibody): <0.02% | Cross-reactivity (100%) (methadone antibody): <0.001% | midpoint parameter of logistic fit of inhibition curve B/B0 (%) [2]: 5.95 ng/mL | Cross-reactivity (100%) (methamphetamine antibody): <0.04%
